Test results from patent publication US12427134B2, “Methods of reducing the risk of cardiovascular events in a subject with atrial fibrillation and/or atrial flutter” (priority 2019, dated 2025).

System: hypertriglyceridemic patients with cardiovascular disease or at high risk for cardiovascular disease
Test: REDUCE-IT: subgroup analyses of the primary and key secondary endpoints
Assay type: in vivo, human
Conditions: for Primary endpoint, patients with event (%) / Time to primary endpoint, HR (95% CI) AMR101/Placebo / Primary endpoint, patients with event n/N: ITT
Procedure: Exploratory Subgroup Analyses: Analyses of the effects that patients off study drug and withdrawn from study have on the primary endpoint were performed. Subgroup analyses of the primary and key secondary endpoints were performed as described for the primary endpoint. For each subgroup, Kaplan-Meier estimates, the log-rank test stratified by stratification factors used at randomization (except where the subgroup was a stratification factor), and HRs and CIs from the Cox proportional hazards model as specified for the primary efficacy endpoint, were summarized by treatment group. Demographic, disease, treatment, and baseline lipid and lipoproteins parameters were explored.
Demographic parameters included: Gender; age at baseline (<65 years and ≥65 years); race (white and nonwhite, or any other subset with at least 10% of the total number of patients); geographical region (Westernized, Eastern European, and Asia Pacific countries); and baseline ezetimibe use (yes/no).
Disease parameters included: CV risk category; the presence/absence of diabetes at baseline; and renal dysfunction at baseline (estimated glomerular filtration rate [eGFR]<60 mL/min/1.73 m^2) using the Chronic Kidney Disease Epidemiology Collaboration (CKD-EPI) equation as follows: eGFR=141×min(Scr/κ,1)^α×max(Scr/κ,1)^[…]^Age×1.018 [if female]×1.159 [if black]
Treatment Parameters included: Statin intensity at baseline (statin type and regimen); and statin intensity categories as defined in ACC/AHA Cholesterol Guidelines (Stone 2013) and patient's 10-year CV Risk Score (Goff 2013).
Baseline Lipid and Lipoprotein Parameter included: LDL-C (by tertile); HDL-C (by tertile, and tertile by gender); TG (by tertile, and tertile by gender); RLP-C (by tertile); TG ≥150 mg/dL and TG <150 mg/dL; TG ≥200 mg/dL and TG <200 mg/dL; TG ≥median, TG <median; combined highest tertile for TG and lowest tertile for HDL-C; gender-specific highest tertile for TG and lowest tertile for HDL-C; TG ≥200 mg/dL with HDL-C ≤35 mg/dL; hsCRP (≤3 mg/L and >3 mg/L) and by gender; hsCRP (≤2 mg/L and >2 mg/L) and by gender; Apo B (by tertile); non-HDL-C (by tertile); baseline hemoglobin A1c (Hb1c) value (<6.5%, ≥6.5%); baseline PAD; and baseline TG levels ≥150 mg/dL with high-density lipoprotein cholesterol (HDL-C) levels ≤40 mg/dL for males and ≤50 mg/dL for females.
A Cox proportional hazard (PH) model as mentioned above but additionally with baseline TG as a covariate were fitted to the data at each interim. Diagnostic plots for the PH assumption were evaluated. The consistency of the treatment effects in subgroups was assessed for the primary and key secondary efficacy endpoints. For each subgroup variable, a Cox PH model with terms for treatment, stratification factors (with the exception of those subgroup variables related to the stratification factors, i.e., CV risk category), subgroup, and treatment-by-subgroup interaction were performed. The main treatment effect was tested with this model. P-values for testing the interaction terms <0.15 were considered significant. Results were presented in a Forest plot.
Subgroup analyses of the primary and key secondary endpoints were performed as described for the primary endpoint. For each subgroup, Kaplan-Meier estimates, the log-rank test stratified by stratification factors used at randomization (except where the subgroup was a stratification factor), and HRs and CIs from the Cox proportional hazards model as specified for the primary efficacy endpoint, were summarized by treatment group. All subgroup analyses were conducted for the ITT, mITT and PP populations.
Of note regarding the following subgroup analyses, per study design, subgroup analyses are underpowered to detect statistically significant results within each individual subgroup, particularly when a subgroup represents less than 50% of the enrolled population, and when a subgroup has low event rates. […]

[1] = Baseline TG <150 mg/dL or HDL-C >40 mg/dL (Males) or >50 mg/dL (Females)
[2] = Baseline TG ≥150 mg/dL and HDL-C ≤40 mg/dL (Males) or ≤50 mg/dL (Females)
[3] = Females, Baseline hsCRP >2 mg/L
[4] = Females, Baseline hsCRP ≤2 mg/L
[5] = Females, HDL-C Highest Tertile (>48 to ≤96.5 mg/dL)
[6] = Females, HDL-C Lowest Tertile (≥21 to ≤41 mg/dL)
[7] = Females, HDL-C Middle Tertile (>41 to ≤48 mg/dL)
[8] = Females, Highest tertile for baseline TG and lowest tertile for baseline HDL-C (No)
[9] = Females, Highest tertile for baseline TG and lowest tertile for baseline HDL-C (Yes)
[10] = Females, TG Highest Tertile (>241.5 to ≤1401 mg/dL)
[11] = Females, TG Lowest Tertile (≥92.5 to ≤186 mg/dL)
[12] = Females, TG Middle Tertile (>186 to ≤241.5 mg/dL)
[13] = Males, HDL-C Highest Tertile (>42 to ≤107.5 mg/dL)
[14] = Males, HDL-C Lowest Tertile (≥17 to ≤35.5 mg/dL)
[15] = Males, HDL-C Middle Tertile (>35.5 to ≤42 mg/dL)
[16] = Males, Highest tertile for baseline TG and lowest tertile for baseline HDL-C (No)
[17] = Males, Highest tertile for baseline TG and lowest tertile for baseline HDL-C (Yes)
[18] = Males, TG Highest Tertile (>253.5 to ≤830 mg/dL)
[19] = Males, TG Lowest Tertile (≥81.25 to ≤191.5 mg/dL)
[20] = Males, TG Middle Tertile (>191.5 to ≤253.5 mg/dL)
[21] = Overall (Males and Females), Baseline hsCRP >2 mg/L
[22] = Overall (Males and Females), Baseline hsCRP ≤2 mg/L
[23] = Overall (Males and Females), HDL-C Highest Tertile (>43.5 to ≤107.5 mg/dL)
[24] = Overall (Males and Females), HDL-C Lowest Tertile (≥17 to ≤36.5 mg/dL)
[25] = Overall (Males and Females), HDL-C Middle Tertile (>36.5 to ≤43.5 mg/dL)
[26] = Overall (Males and Females), Highest tertile for baseline TG and lowest tertile for baseline HDL-C (No)
[27] = Overall (Males and Females), Highest tertile for baseline TG and lowest tertile for baseline HDL-C (Yes)
[28] = Overall (Males and Females), TG Highest Tertile (>250 to ≤1401 mg/dL)

CC/C=C\C/C=C\C/C=C\C/C=C\C/C=C\CCCC(=O)OCC [AMR101, eicosapentaenoic acid ethyl ester]
Key secondary endpoint event, patients (<65 years subgroup): 9.0% | Key secondary endpoint, HR (<65 years subgroup): 0.652 | Primary endpoint event, patients (<65 years subgroup): 14.4% | Primary endpoint, HR (<65 years subgroup): 0.650 | Primary endpoint, patients with event (%) (Baseline HbA1c <6.5%): 16.5% | Time to primary endpoint, HR (95% CI) AMR101/Placebo (Baseline HbA1c <6.5%): 0.793 | Time to primary endpoint, HR (95% CI) AMR101/Placebo (Baseline HbA1c ≥6.5%): 0.701 | Primary endpoint, patients with event (%) [1]: 18.2% | Time to primary endpoint, HR (95% CI) AMR101/Placebo [1]: 0.842 | Primary endpoint, patients with event (%) [2]: 16.5% | Time to primary endpoint, HR (95% CI) AMR101/Placebo [2]: 0.691 | Primary endpoint, patients with event (%) [3]: (15.0) % | Primary endpoint, patients with event n/N [3]: 113/752 | Time to primary endpoint, HR (95% CI) AMR101/Placebo [3]: 0.930 | Primary endpoint, patients with event (%) [4]: (10.0) % | Primary endpoint, patients with event n/N [4]: 41/409 | Time to primary endpoint, HR (95% CI) AMR101/Placebo [4]: 0.621 | Primary endpoint, patients with event (%) [5]: (13.9) % | Primary endpoint, patients with event n/N [5]: 50/359 | Time to primary endpoint, HR (95% CI) AMR101/Placebo [5]: 0.936 | Primary endpoint, patients with event (%) [6]: (16.7) % | Primary endpoint, patients with event n/N [6]: 71/426 | Time to primary endpoint, HR (95% CI) AMR101/Placebo [6]: 0.894 | Primary endpoint, patients with event (%) [7]: (8.8) % | Primary endpoint, patients with event n/N [7]: 33/374 | Time to primary endpoint, HR (95% CI) AMR101/Placebo [7]: 0.609 | Primary endpoint, patients with event (%) [8]: (13.7) % | Primary endpoint, patients with event n/N [8]: 59/431 | Time to primary endpoint, HR (95% CI) AMR101/Placebo [8]: 0.755 | Primary endpoint, patients with event (%) [9]: (15.7) % | Primary endpoint, patients with event n/N [9]: 29/185 | Time to primary endpoint, HR (95% CI) AMR101/Placebo [9]: 0.934 | Primary endpoint, patients with event (%) [10]: (12.3) % | Primary endpoint, patients with event n/N [10]: 46/375 | Time to primary endpoint, HR (95% CI) AMR101/Placebo [10]: 0.734 | Primary endpoint, patients with event n/N [11]: 49/396 | Time to primary endpoint, HR (95% CI) AMR101/Placebo [11]: 0.728 | Primary endpoint, patients with event (%) [12]: (15.1) % | Primary endpoint, patients with event n/N [12]: 59/390 | Time to primary endpoint, HR (95% CI) AMR101/Placebo [12]: 1.077 | Primary endpoint, patients with event (%) (Males, Baseline hsCRP >2 mg/L): (21.5) % | Time to primary endpoint, HR (95% CI) AMR101/Placebo (Males, Baseline hsCRP >2 mg/L): 0.772 | Primary endpoint, patients with event (%) (Males, Baseline hsCRP ≤2 mg/L): (16.4) % | Time to primary endpoint, HR (95% CI) AMR101/Placebo (Males, Baseline hsCRP ≤2 mg/L): 0.691 | Primary endpoint, patients with event (%) [13]: (20.5) % | Primary endpoint, patients with event n/N [13]: 187/913 | Time to primary endpoint, HR (95% CI) AMR101/Placebo [13]: 0.857 | Primary endpoint, patients with event (%) [14]: (19.0) % | Time to primary endpoint, HR (95% CI) AMR101/Placebo [14]: 0.652 | Primary endpoint, patients with event (%) [15]: (16.9) % | Primary endpoint, patients with event n/N [15]: 160/945 | Time to primary endpoint, HR (95% CI) AMR101/Placebo [15]: 0.717 | Primary endpoint, patients with event (%) [16]: (18.1) % | Time to primary endpoint, HR (95% CI) AMR101/Placebo [16]: 0.693 | Primary endpoint, patients with event (%) [17]: (19.9) % | Primary endpoint, patients with event n/N [17]: 90/453 | Time to primary endpoint, HR (95% CI) AMR101/Placebo [17]: 0.632 | Primary endpoint, patients with event (%) [18]: (18.9) % | Primary endpoint, patients with event n/N [18]: 181/960 | Time to primary endpoint, HR (95% CI) AMR101/Placebo [18]: 0.671 | Primary endpoint, patients with event (%) [19]: (19.0) % | Primary endpoint, patients with event n/N [19]: 185/972 | Primary endpoint, patients with event (%) [20]: (18.6) % | Primary endpoint, patients with event n/N [20]: 185/993 | Time to primary endpoint, HR (95% CI) AMR101/Placebo [20]: 0.741 | Primary endpoint, patients with event (%) [21]: (19.2) % | Time to primary endpoint, HR (95% CI) AMR101/Placebo [21]: 0.813 | Primary endpoint, patients with event (%) [22]: (15.0) % | Time to primary endpoint, HR (95% CI) AMR101/Placebo [22]: 0.680 | Primary endpoint, patients with event (%) [23]: 15.9% | Time to primary endpoint, HR (95% CI) AMR101/Placebo [23]: 0.812 | Primary endpoint, patients with event (%) [24]: 18.1% | Time to primary endpoint, HR (95% CI) AMR101/Placebo [24]: 0.667 | Primary endpoint, patients with event (%) [25]: 17.6% | Time to primary endpoint, HR (95% CI) AMR101/Placebo [25]: 0.800 | Primary endpoint, patients with event (%) [26]: (16.3) % | Time to primary endpoint, HR (95% CI) AMR101/Placebo [26]: 0.679 | Primary endpoint, patients with event (%) [27]: (19.1) % | Primary endpoint, patients with event n/N [27]: 118/619 | Time to primary endpoint, HR (95% CI) AMR101/Placebo [27]: 0.670 | Primary endpoint, patients with event (%) [28]: 16.9% | Time to primary endpoint, HR (95% CI) AMR101/Placebo [28]: 0.675
